The values below come from patent US12251363B2, “Compositions to enhance a non-surgical medical treatment” (Anti-Plasmin Technologies, LLC, priority 2017, dated 2025).

SMILES strings stand for the structures.

The nature of series [1]: HPLC study to detect any binding interaction of tranexamic acid with hyaluronic acid polymer (ERACLEA product). The format is physicochemical.
Protocol: First a skin care product from ERACLEA® Skin Care containing 1% (w/v) hyaluronic acid polymer and preservatives was tested. […] The analysis was carried out with fresh sample preparations being mixed and immediately injected into the HPLC system for analysis as well as sample preparations that were mixed and allowed to stand for a 20 minute time period prior to injection.
(§1) Similar to the above-mentioned study, the JUVEDERM® analysis was carried out with fresh sample preparations being immediately injected for analysis as well as sample preparations that were allowed to stand for a 20 minute time period prior to injection.
The sample preparation was prepared as follows: 10 mg of hyaluronic acid polymer (Source: ERACLEA®, pure hydration) was weighed in 2.5 mL of auto sampler vial and diluted to 1000 μt volume by adding an aqueous solution of 60:40 ratio, by volume, distilled water/acetonitrile and used as a standard stock solution.
The HPLC was conducted with a flow rate of 1 mL/min, a sample concentration of 10 mg/mL, and an injection volume of 10 μt, a wave length of 205 nm and a solvent system of 40:60 ratio, by volume, acetonitrile/distilled water.
Series [2] deals with patients receiving hyaluronic acid dermal filler. Kind of series: Non-surgical clinical use: tranexamic acid solution before and after injection of hyaluronic acid dermal filler, 318 patients. It is filed as in vivo, human. The conditions noted are these: 3% (w/v) tranexamic acid solution before and after filler injection. An excerpt: Three patients of the 318 reported instances of bruising or swelling.

The nature of series [3]: HPLC study of interaction of tranexamic acid with hyaluronic acid dermal filler (JUVEDERM). The format is physicochemical. Conditions: freshly prepared 3% (w/v) tranexamic acid in filler; injected immediately vs after standing 20 min.
Protocol: as §1
The sample preparation was prepared as follows: 13 mg of filler (Source: JUVEDERM® Vollere XC) was weighed in a 2.5 mL vial and diluted to 1000 μt volume by adding an aqueous solution of 60:40 ratio, by volume, distilled water/acetonitrile.
Series [4] has as its system patients undergoing dermal filler procedures. Kind of series: Bruising study: tranexamic acid solutions applied before and after dermal filler procedures, 48-hour observation. The format is in vivo, human.
The conditions of series [5]: oral administration; cited from earlier work.
Where [6] appears, read: 20% (w/v) tranexamic acid solution vs without.
Setting [7] is: 20% (w/v) tranexamic acid solution, when bruising occurred.

Consider `NC[C@H]1CC[C@H](C(=O)O)CC1` [tranexamic acid], for which the “interaction between tranexamic acid and hyaluronic acid polymer when mixed in solution” value in series [1] (3% (w/v) tranexamic acid in solution containing 1% (w/v) hyaluronic acid polymer, mixed several weeks prior to HPLC) is “no interaction”. In series [1] (freshly prepared 3% (w/v) tranexamic acid in hyaluronic acid polymer, injected immediately vs after standing 20 min), the “interaction between tranexamic acid and hyaluronic acid polymer” value is reported as “no interaction”. The “interaction between tranexamic acid and the hyaluronic acid in the ERACLEA product” value in series [1] (left in contact for several weeks (0.5% and 3% (w/v) tranexamic acid)) is reported as “no interaction”. Besides, in series [2], the “patients reported instances of bruising or swelling (count)” value was “Three”. The “patients reported instances of bruising and swelling” value in series [2] (318 patients, about 1 year) is recorded as “Less than 1%”. The “interaction between tranexamic acid and JUVEDERM filler” value in series [3] is listed as “no interaction”. Moreover, the “mild to no bruising combined, patients” value in series [4] (20% (w/v) tranexamic acid solution) came out at 82%. Also, in series [4] (20% (w/v) tranexamic acid solution vs labeling of JUVEDERM VOLLURE XC and VOLBELLA XC), the “more patients experienced no bruising vs filler labeling” value is recorded as “about 28%”. Also, the “improvement in bruising incidence” value in series [4] (20% (w/v) tranexamic acid solution vs other series, 48-hour observation) is on record as “three-fold”. Also, in series [4] (setting [6]), the “improvement in mild bruising” value is reported as 80%, the “improvement in mild to no bruising combined” value amounted to 58% and the “improvement in severe bruising” value is on record as 100%. Further, the “patients experienced no bruising” value in series [4] (20% (w/v) tranexamic acid solution, 48-hour observation) is given as “Approximately 45%”. Further, in series [4] (setting [7]), the patients bruised severely entry was “no patients” and the “patients only bruised mildly” value is listed as 67%. Further, the “patients experienced no bruising” value in series [4] (other series of patients (3%, 5%, 10% (w/v), and 3% plus home use for two days), 48-hour observation) is on record as “about 15%”. For the same compound, in series [5], the “fraction of the TA ingested that does not enter the blood” value was “about half”.
